# Experiments:
# [1] = system: MCA205 cells; test: In vivo vaccination and rechallenge, MCA205 model; set-up: species or system C57BL/6 mice; conditions: vaccination with MCA205 cells pre-treated with 500 µM Cisplatin or 1400 µM Oxaliplatin (dark), 5.5 µM Ce6 or 3 µM Os2 (740 nm)
# Excerpt: Next, we used these concentrations in the MCA205 vaccination and rechallenge model on C57BL/6 mice to test the in vivo ICD effect of Os2, following the same experimental procedure as that used for CT26‐luc cells in Figure 5A. […] Body weights remained stable across all groups throughout the study, further supporting the good in vivo biosafety of Os2.
# The BALB/c female mice were randomly divided into 4 groups with each group containing 5 mice, which were named as Control group, Cisplatin group, Ce6 group and Os2 group. CT26-luc cells wer e treat ed in vitro with 600 µM Cisplatin in the dark, 6.5 µM Ce6 or 1.8 µM Os2 upon 740 nm LED light irradiation (60 min, 12.6 J cm-2) following the methods described above. Subsequently, treated CT26-luc cells (3×10^5 cells in 100 µ L sterile PBS) or 100 µ L sterile PB S were injected subcutaneously into the left flank of each mouse. One week later, mice were r echalleng ed by injection with untreated CT26- luc cells (1×10^6 cells in 100 µL sterile PBS). The mice were monitored by an in vivo imaging system (Biospace Lab, Photon Imager Optima) and the tumor volume was calculated with the following equation: tumor volume = width 2 × length × […]
# In vivo vaccination study on MCA205 cells
# The C57BL/6 mice were randomly divided into 5 groups with each group containing 10 mice, whi ch w ere nam ed as Control group, Cisplatin group, Oxaliplatin group, Ce6 group and Os2 group. M CA205 cells were treated in vitro with 500 µM Cisplatin o r 1400 µM Oxaliplatin in the dark, 5.5 µM Ce6 or 3 µM Os2 upon 740 nm LED light irradiation (60 min, 12.6 J cm-2) following the methods described above. Subsequently, treated MCA205 cells (3 ×10^5 cells in 100 µ L sterile PBS) or 100 µ L sterile PBS were injected subcutaneously into the left flank of each mouse. One week later, mice were rechallenged by injection with untreated MCA205 cells (1×10^6 cells in 100 µ L sterile PBS). The tumor volume was calculated with the following equation: tumor volume =
# [2] = system: mouse fibrosarcoma (MCA205) cells; test: Resazurin cell viability assay, phototoxicity; format: cell-based; conditions: MCA-205, light or radiation study, 1 h, MCA205, 740 nm, 60 min, 12.60 J/cm2
# Procedure: (100 U ml−1), streptomycin (100 U ml−1), and 1% L-glutamine. The murine fibrosarcom a (MCA205) cells were cultured in RPMI 1640 medium with 10% fetal bovine serum (FBS), penicillin (100 U ml−1), streptomycin (100 U ml−1), and 1% L-glutamine. All cells were incubated at 37 °C in a humidified atmosphere with 5 % CO2.
# Normoxia. The in vitro viability of cells exposed to the complexes was determined using a resazurin assay. C ells were seeded in 96-well plates at densities of 4,000 cells/well for CT26, MC A205 and U-87 MG cells, and 8,000 cells/well for MRC-5 and NIH/3T3 cells. A fter 24 h of growth at 37 °C wit h 5% CO2, the medium was replaced with fresh medium containing various concentrations of the compounds . Following a 4- h incubation in the dark, the medium was refres hed , and the plates were exposed to irradiation usinga LUM OS -BIO photoreactor (At las Photonics).N on- ir rad iated plates were similarly refr eshed with medium and kept in the dark for the same duration. After a 40- h r ecov ery period, a f reshly pr epar ed resazurin solution (0.2 mg/mL) was added to each well, and the plates were left in the dark for 4 h before analysis on a B i o Te k Cytation 5 Cell Imaging Multimode Reader (Agil ent Technologies). […]
# [3] = system: HMGB‐1; test: Immunofluorescence staining of HMGB-1 (release) in CT26 cells; format: cell-based, mouse; conditions: CT26, compounds at IC50, illumination at 740 and 770 nm
# Procedure: Scientific, Catalog no.15 5411) at a d ensity of 8,00 0 cells p er well and cultu red fo r 24 h at 37 °C with 5 % CO2. T he cells wer e then treated with a solution of the compounds at a concentration corresponding to the IC50 for 4 h. After refreshing the medium, cells were subjected to irradiation and incubated for an additional 12 h. Subsequently, the cells were fix ed with 4% paraformaldehyde and immunostained with Anti- Calreticulin antibody (Abcam, Catalog no. ab2907) diluted 1/1000 at 4 °C overnight. Cells were then washed three times with PBS, treated with Goat Anti- Rabbit IgG H&L (Alexa […]
# temperature in the dark, washed in PBS and treat ed with 10 µg/mL Hoechst for 15 min.
# After a final wash, cells were analyzed by confocal microscopy as det ailed above.
# Immunofluorescence st aining of HMGB-1
# CT26 or MCA205 cells were seeded in Lab -Te k ® Chambered Coverglass System (Thermo Fisher Scientific, Catalog no.155411) at a density of 8,000 cells per well and cultured for 24 h at 37 °C with 5% CO2. The cells were then treated with a solution of the compounds at a concentration corresponding to the IC50 for 4 h. After refreshing the medium, cells were subjected to irradiation and incubated for an additional 12 h.
# Subsequently, the cells were fixed with 4% paraformaldehyde, perm eabilized with 0.2% Triton X-100 and immunostained using anti-HMGB1 antibody [EPR3507] […]
smiles,measurement,setting,value
"C=Cc1c(C)c2cc3nc(c(CC(=O)O)c4[nH]c(cc5nc(cc1[nH]2)C(C)=C5CC)c(C)c4C(=O)O)[C@@H](CCC(=O)O)[C@@H]3C [Ce6, chlorin e6]",Tumor growth,[1],partial suppression
same,IC50,[2],1770 ± 380 nM
same,HMGB‐1 release,[3],a minority
